# Data reported in patent US7833967B2, “Synthetic antimicrobial polypeptides” (priority 2003, dated 2010).
# Test system: E. coli TOP10
# Assay: Suicide expression system (SES) growth inhibition
# Type: cell-based
# Conditions: Table 4; variants of SEQ ID NO:10, re-tested in the Bioscreen C
row,Substance,Growth inhibition (%)
1,158 (RRRPIRPPFRPPIRPPIRPPIRPPVRP; Synthetic antimicrobial peptide) [compound 158],67%
2,159 (RRRPVRPPIRPPIRPPVRPPLRPPVRP; Synthetic antimicrobial peptide) [compound 159],35%
3,160 (RRRPFRPPVRPPFRPPVRPPFRPPFRP; Synthetic antimicrobial peptide) [compound 160],77%
4,161 (RRRPFRPPVRPPIRPPVRPPFRPPFRP; Synthetic antimicrobial peptide) [compound 161],78%
5,162 (RRRPFRPPIRPPFRPPFRPPLRPPLRP; Synthetic antimicrobial peptide) [compound 162],68%
6,163 (RRRPIRPPFRPPFRPPFRPPIRPPIRP; Synthetic antimicrobial peptide) [compound 163],79%
7,164 (RRRPFRPPIRPPLRPPFRPPFRPPFRP; Synthetic antimicrobial peptide) [compound 164],78%
8,165 (RRRPFRPPLRPPFRPPVRPPLRPPVRP; Synthetic antimicrobial peptide) [compound 165],65%
9,166 (RRRPLRPPVRPPFRPPVRPPVRPPLRP; Synthetic antimicrobial peptide) [compound 166],55%
10,167 (RRRPFRPPLRPPFRPPLRPPLRPPVRP; Synthetic antimicrobial peptide) [compound 167],58%
11,168 (RRRPLRPPFRPPIRPPVRPPLRPPFRP; Synthetic antimicrobial peptide) [compound 168],71%
12,169 (RRRPIRPPLRPPVRPPFRPPVRPPFRP; Synthetic antimicrobial peptide) [compound 169],67%
13,170 (RRRPIRPPFRPPFRPPFRPPVRPPFRP; Synthetic antimicrobial peptide) [compound 170],80%
14,171 (RRRPIRPPIRPPIRPPIRPPFRPPFRP; Synthetic antimicrobial peptide) [compound 171],77%
15,172 (RRRPFRPPIRPPFRPPIRPPVRPPFRP; Synthetic antimicrobial peptide) [compound 172],82%
16,173 (RRRPLRPPIRPPLRPPVRPPFRPPFRP; Synthetic antimicrobial peptide) [compound 173],81%
17,174 (RRRPIRPPIRPPFRPPLRPPFRPPFRP; Synthetic antimicrobial peptide) [compound 174],80%
18,175 (RRRPFRPPVRPPFRPPLRPPFRPPFRP; Synthetic antimicrobial peptide) [compound 175],77%
19,176 (RRRPLRPPVRPPIRPPIRPPFRPPFRP; Synthetic antimicrobial peptide) [compound 176],81%
20,177 (RRRPFRPPIRPPFRPPIRPPVRPPIRP; Synthetic antimicrobial peptide) [compound 177],75%
21,178 (RRRPLRPPFRPPVRPPFRPPFRPPFRP; Synthetic antimicrobial peptide) [compound 178],81%
22,179 (RRRPFRPPIRPPIRPPFRPPFRPPFRP; Synthetic antimicrobial peptide) [compound 179],87%
23,180 (RRRPLRPPIRPPIRPPIRPPFRPPFRP; Synthetic antimicrobial peptide) [compound 180],76%
24,181 (RRRPIRPPIRPPFRPPFRPPFRPPFRP; Synthetic antimicrobial peptide) [compound 181],83%
25,182 (RRRPFRPPIRPPFRPPIRPPVRPPFRP; Synthetic antimicrobial peptide) [compound 182],83%

row,Substance,Growth inhibition (%)
1,183 (RRRPFRPPVRPPLRPPFRPPFRPPFRP; Synthetic antimicrobial peptide) [compound 183],80%
2,184 (RRRPIRPPIRPPFRPPLRPPFRPPFRP; Synthetic antimicrobial peptide) [compound 184],78%
3,185 (RRRPLRPPIRPPIRPPFRPPFRPPFRP; Synthetic antimicrobial peptide) [compound 185],79%
4,186 (RRRPIRPPIRPPIRPPFRPPFRPPFRP; Synthetic antimicrobial peptide) [compound 186],77%
5,187 (RRRPIRPPFRPPFRPPVRPPFRPPFRP; Synthetic antimicrobial peptide) [compound 187],85%
6,188 (RRRPFRPPFRPPIRPPVRPPVRPPFRP; Synthetic antimicrobial peptide) [compound 188],83%
7,189 (RRRPFRPPFRPPIRPPVRPPIRPPFRP; Synthetic antimicrobial peptide) [compound 189],79%
8,190 (RRRPFRPPIRPPFRPPIRPPFRPPFRP; Synthetic antimicrobial peptide) [compound 190],83%
9,191 (RRRPFRPPFRPPIRPPFRPPVRPPFRP; Synthetic antimicrobial peptide) [compound 191],77%
10,192 (RRRPFRPPFRPPFRPPVRPPVRPPFRP; Synthetic antimicrobial peptide) [compound 192],92%
11,193 (RRRPFRPPIRPPFRPPIRPPFRPPFRP; Synthetic antimicrobial peptide) [compound 193],81%
12,194 (RRRPLRPPFRPPFRPPIRPPFRPPFRP; Synthetic antimicrobial peptide) [compound 194],81%
13,195 (RRRPFRPPIRPPFRPPVRPPVRPPVRP; Synthetic antimicrobial peptide) [compound 195],76%
14,196 (RRRPFRPPLRPPIRPPIRPPFRPPFRP; Synthetic antimicrobial peptide) [compound 196],77%
15,197 (RRRPFRPPFRPPFRPPFRPPLRPPFRP; Synthetic antimicrobial peptide) [compound 197],86%
16,198 (RRRPFRPPFRPPFRPPFRPPFRPPFRP; Synthetic antimicrobial peptide) [compound 198],91%
17,199 (RRRPLRPPIRPPFRPPVRPPFRPPFRP; Synthetic antimicrobial peptide) [compound 199],80%
18,200 (RRRPFRPPFRPPLRPPFRPPVRPPFRP; Synthetic antimicrobial peptide) [compound 200],87%
19,201 (RRRPFRPPIRPPIRPPFRPPIRPPFRP; Synthetic antimicrobial peptide) [compound 201],78%
20,202 (RRRPFRPPFRPPFRPPLRPPFRPPFRP; Synthetic antimicrobial peptide) [compound 202],84%
21,203 (RRRPFRPPIRPPFRPPIRPPFRPPFRP; Synthetic antimicrobial peptide) [compound 203],79%
22,204 (RRRPLRPPLRPPFRPPIRPPFRPPFRP; Synthetic antimicrobial peptide) [compound 204],76%
23,205 (RRRPFRPPFRPPIRPPVRPPFRPPFRP; Synthetic antimicrobial peptide) [compound 205],77%
24,206 (RRRPFRPPFRPPFRPPFRPPFRPPFRP; Synthetic antimicrobial peptide) [compound 206],77%

# Same assay, conditions: Table 5; mixed-motif library, re-tested in the Bioscreen C
row,Substance,Growth inhibition (%)
1,207 (RRRPPRFPRPFPIRPPPRFPRPIPFRP; Synthetic antimicrobial peptide) [compound 207],93%
2,208 (RRRPPRFPRPFPVRPPPRFPRPIPVRP; Synthetic antimicrobial peptide) [compound 208],95%
3,209 (RRRPPRIPRPFPIRPPPRFPRPIPFRP; Synthetic antimicrobial peptide) [compound 209],78%
4,210 (RRRPPRIPRPIPVRPPPRIPRPIPFRP; Synthetic antimicrobial peptide) [compound 210],94%
5,211 (RRRPPRLPRPFPFRPPPRFPRPIPFRP; Synthetic antimicrobial peptide) [compound 211],96%
6,212 (RRRPPRLPRPFPFRPPPRFPRPVPIRP; Synthetic antimicrobial peptide) [compound 212],96%
7,213 (RRRPPRLPRPFPFRPPPRLPRPFPIRP; Synthetic antimicrobial peptide) [compound 213],94%
8,214 (RRRPPRLPRPFPFRPPPRLPRPIPLRP; Synthetic antimicrobial peptide) [compound 214],95%
9,215 (RRRPPRLPRPFPFRPPPRPRPFPFRP; Synthetic antimicrobial peptide) [compound 215],94%
10,216 (RRRPPRLPRPFPFRPPPRPRPLPVRP; Synthetic antimicrobial peptide) [compound 216],95%
11,217 (RRRPPRLPRPFPFRPPPRVPRPFPLRP; Synthetic antimicrobial peptide) [compound 217],93%
12,218 (RRRPPRLPRPFPFRPPPRVPRPIPVRP; Synthetic antimicrobial peptide) [compound 218],93%
13,219 (RRRPPRLPRPFPFRPPPRVPRPLPFRP; Synthetic antimicrobial peptide) [compound 219],93%
14,220 (RRRPPRLPRPFPIRPPPRFPRPFPVRP; Synthetic antimicrobial peptide) [compound 220],90%
15,221 (RRRPPRLPRPFPIRPPPRFPRPLPFRP; Synthetic antimicrobial peptide) [compound 221],93%
16,222 (RRRPPRLPRPFPIRPPPRFPRPVPLRP; Synthetic antimicrobial peptide) [compound 222],93%
